According to patent US11096934B2, “Compounds and methods useful for treating or preventing hematological cancers” (THE BROAD INSTITUTE, INC., priority 2015, dated 2021):

What was measured:
[1] = molecular target: panel of >400 known kinases; assay: DiscoverX KinomeScan kinase panel; assay type: binding
[2] = tested on: THP1 cells; assay: THP-1 subcutaneous xenograft model of AML; assay type: in vivo, SCID mice
Source text: THP1 cells were implanted subcutaneously into the flank of SCID mice, and allowed 10 days to engraft to tumor size of ˜40 mm^2.

[3] = tested on: DHODH activity; assay: Plasma uridine and dihydroorotate (DHO) after brequinar dosing; assay type: in vivo, murine
Description: DHODH catalyzes the conversion of dihydroorotate (DHO) to orotate in the endogenous synthesis of uridine monophosphate. Inhibition of DHODH activity results in dihydroorotate accumulation and uridine depletion.
Plasma uridine levels were analyzed at various times thereafter (FIG. 8). […] Patient-specific dosing will be accomplished by adjusting the dose of DHODH inhibitor based on the patient's metabolism. This will involve adjusting the dosage based on the measurement of plasma DHO.

[4] = tested on: wild-type C57B1/6 mice; conditions: C57B1/6, mouse, in vivo, 6 days
[5] = tested on: Lys-GFP-ER-HoxA9 cells; assay: Myeloid differentiation assay in Lys-GFP-ER-HoxA9 cells (GFP / CD11b flow cytometry)
Description: (See Example 20 for assay details.) After four days of compound treatment, cells were assessed by high-throughput flow cytometry for viability based on forward and side-scatter properties, and for differentiation as determined by the endogenous expression of GFP and cell-surface expression of CD11b (APC fluorescence, FIG. 2C).
The cell line used was ERHoxA9 myeloblast cell line. […] Removal of beta-estradiol from the culture media inactivates ERHoxA9 and the cells are freed from the HoxA9-differentiation arrest and undergo normal myeloid differentiation.
Cells were cultured in RPMI (Cellgro) supplemented with 10% fetal bovine serum (Serum Source Int'l), penicillin/streptomycin, L-glutamine (Omega Scientific), 5% conditioned media containing stem cell factor (SCF), and 0.5 μM beta-estradiol (Sigma). On day 1, 25 μL of complete media supplemented with 0.04% Pluronic F-68 (GIBCO) was added to a sterile 384 well culture plate (Greiner) followed by the addition of 0.2 μL of test compound in DMSO (Sigma). Wells contained complete media supplemented with Pluronic F-68 and the 5 μM of the estrogen receptor antagonist fulvestrant that served as a positive control for differentiation. 25 μL of cells (1.2×10^5/ml) in complete media were added and the plates were incubated (37° C./5% CO2) for 4 days. Final concentrations of components were 3,000 cells/well, 4 μM test compound, and 0.4% DMSO.
On day 5, plates were harvested as follows: 5 μL of an antibody/bead solution consisting of a 1:100 dilution of APC-conjugated anti-mouse CD11b (eBioscience, cloneM1/70) and a 1/500 dilution of polystyrene beads (Spherotech) were added to wells and the plates were incubated for 20 min prior to sampling using the HyperCyt® high throughput flow cytometry platform.
Cells were cultured in RPMI (Cellgro) supplemented with 10% fetal bovine serum (Serum Source Int'l), penicillin/streptomycin, L-glutamine (Omega Scientific), 5% conditioned media containing stem cell factor (SCF), and 0.5 μM beta-estradiol (Sigma, E2758). On day 1, 25 μL of complete media supplemented with 0.04% Pluronic F-68 (GIBCO) was added to a sterile 384 well culture plate (Greiner) followed by the addition of 0.2 μL of compound dilution arrays in DMSO. Some wells contained complete media supplemented with Pluronic F-68 and 5 μM of the estrogen receptor antagonist fulvestrant that served as a positive control for differentiation. 25 μL of cells (1.2×10^5/ml) in complete media were added and the plates were incubated (37° C./5% CO2) for 4 days. Final concentrations of components were 3,000 cells/well and 0.4% DMSO.

[6] = tested on: HoxA9-Meis1 leukemia cells; assay: Syngeneic HoxA9 and Meis1-driven model of AML
Source text: To address the anti-leukemic and differentiation effect of DHODH inhibition in vivo, we chose a syngeneic retroviral transduction model of AML. In this model, bone marrow cells are transduced with MSCV-based retrovirus expressing both HoxA9 and Meis1 oncoproteins and introduced intravenously into recipient mice that have been pre-conditioned with a sub-lethal dose of radiation. Mice that developed acute myeloid leukemia were sacrificed and bone marrow cells were expanded in vitro in media supplemented with SCF and IL-3. To permit easy tracking in vivo, leukemic cells were transduced with lentivirus expressing the Venus fluorescent protein, and double-sorted by fluorescence activated cell sorting (FACS) to purity. These Venus-expressing cultured leukemic cells were re-transplanted into pre-conditioned secondary recipient mice, and these secondary recipients were used in all described experiments. […] Mice were treated at six dosages: (1) vehicle Q2D, (2) BRQ 5 mg/kg Q2D, (3) BRQ 10 mg/kg Q2D, (4) BRQ 25 mg/kg Q2D, (5) vehicle days 1+4 of a 7-day schedule or (6) BRQ 25 mg/kg days 1+4 of a 7-day schedule. Scheduled interim euthanasia and leukemia analyses were performed at two planned time points (FIG. 6A).

[7] = Plasma protein binding; assay type: in vitro ADME; conditions: consistent with published literature
Description: Plasma protein binding was determined by equilibrium dialysis using the Rapid Equilibrium Dialysis (RED) device (Pierce Biotechnology, Rockford, Ill.) for both human and mouse plasma. Each compound was prepared in duplicate at 5 μM in plasma (0.95% acetonitrile, 0.05% DMSO) and added to one side of the membrane (200 μl) with PBS pH 7.4 added to the other side (350 μl). Compounds were incubated at 37° C. for 5 hours with a 250 rpm orbital shake. After incubation, samples were analyzed by UPLC-MS (Waters, Milford, Mass.) with compounds detected by SIR detection on a single quadrupole mass spectrometer.

[8] = tested on: organ rejection; conditions: in vivo; cited from earlier work
[9] = Brequinar plasma concentration after a single IP dose; conditions: mouse, FIG. 4E, read-out: half-life in vivo (converted)
[10] = tested on: leukemia initiating cells; assay: Leukemia-initiating cell activity (transplant of FACS-purified leukemia cells into tertiary recipients); assay type: in vivo, mice
Source text: Leukemic cells isolated from the BRQ-treated mice were more differentiated on the basis of their CD11b and Gr-1 cell-surface expression (FIGS. 6C, 6D). To assess their morphology as well as their functional potential as leukemia initiating cells, live Venus-positive leukemic cells were freshly isolated from vehicle or BRQ-treated mice by fluorescence-activated cell sorting (FACS).
FACS-purified leukemia cells from vehicle or BRQ-treated mice were re-introduced into sub-lethally irradiated tertiary recipient mice. The experiment was performed twice: from mice that received BRQ 25 mg/kg every other day for 4 doses (FIG. 7B, left panel), and from mice that received BRQ day 1+4 of a 7-day cycle for a total of 6 doses (FIG. 7B, right panel).

[11] = tested on: wild-type C57B1/6 mice; assay: Maximum tolerated dose (MTD) evaluation; conditions: doses higher than 15 mg/kg, after 6 days of daily dosing; reversible
[12] = tested on: protein O-GlcNAc modification; assay: Immunoblot of protein O-GlcNAc modification; assay type: cell-based
Source text: FIG. 5E is an immunoblot.
DHODH and OMPD inhibitors lead to depletion of uridine and to myeloid differentiation in model systems. […] (See, Example 24.) Without intending to be bound by theory, part of the differentiation effect may be due to depletion of UDP-GlcNAc leading to decreased O-linked N-acetylglycosylation (GlcNAc) post-translational modification of proteins.

[13] = 5 mg/kg or 10 mg/kg every other day
[14] = 25 mg/kg day 1+4 of a 7-day schedule
[15] = 25 mg/kg day 1+4 of a 7-day schedule, 6 doses

Compound: Cc1c(-c2ccc(-c3ccccc3F)cc2)nc2ccc(F)cc2c1C(=O)O [brequinar, 6-fluoro-2-(2′-fluoro-[1,1′-biphenyl]-4-yl)-3-methyl-quinoline-4-carboxylic acid]
- kinase inhibitory activity ([1]; 100 nM): near-complete absence of kinase inhibitory activity
- kinase inhibitory activity ([1]; 1 μM): near-complete absence of kinase inhibitory activity
- tumor growth ([2]; 5 mg/kg daily IP): arrested tumor growth
- tumor growth ([2]; 15 mg/kg Q3D IP): slowed tumor growth
- reduction in cellular uridine levels ([2]; THP1 cells isolated from treated mice vs vehicle): 90 % AUC
- differentiation of explanted THP1 cells (CD11b expression) ([2]; tumors explanted after 10 days of treatment): marked differentiation
- change in DHO levels, IP versus PO administration ([3]; FIG. 11): similar
- time until DHO levels undetectable again ([3]; single 25 mg/kg dose): ≤ 72 h
- time to rebound of plasma uridine ([3]; single dose 25 mg/kg): about 48 hours
- tolerated dose [4]: up to 15 mg/kg
- increase in ED50 ([5]; cells cultured in 50% FBS): ~2 fold
- myeloid differentiation effect in vitro ([5]; pulses that lasted fewer than 48-hours): almost no effect
- survival [6, 13]: prolongation of survival
- tolerability [6, 13]: well tolerated without hematologic toxicity or weight loss
- differentiation markers on leukemic cells ([6]; 25 mg/kg Q2D for four doses): upregulation of differentiation markers CD11b (Mac-1) and Gr-1 (Ly6C/G)
- leukemic involvement of bone marrow, spleen and peripheral blood ([6]; 25 mg/kg Q2D for four doses): dramatic decrease in the leukemic involvement of their bone marrow, spleen, and peripheral blood
- side effects ([6]; 25 mg/kg Q2D for four doses): weight loss, anemia, and thrombocytopenia
- time off treatment until relapse with leukemia ([6]; 25 mg/kg day 1+4, discontinued after 14 doses (day 59)): approximately 4 weeks
- survival [6, 14]: even more dramatic prolongation of survival
- toxicity [6, 14]: without toxicity
- leukemic involvement of bone marrow, spleen and peripheral blood [6, 15]: even more dramatic decrease in the leukemic involvement of their bone marrow, spleen, and peripheral blood
- side effects [6, 15]: none of the side effects
- cellular uridine, UDP and UDP-glycoconjugates ([6]; HoxA9-Meis1 leukemia cells from bone marrow of treated mice): significant reduction in cellular uridine
- tolerability and efficacy ([6]; administered every 3-days, mouse model of AML): both effective against AML and well-tolerated
- protein-bound [7]: 98-99%
- prevention of organ rejection [8]: effective in preventing organ rejection
- half-life [9]: ~12 h
- morphology of leukemic cells isolated from treated mice ([10]; Wright-Giemsa cytospin): morphologic granulocytic differentiation
- leukemia development in recipients of leukemic cells from treated donors ([10]; donors: 25 mg/kg every other day 4 doses, or day 1+4 of 7-day cycle 6 doses, both cases): took longer to develop symptoms of leukemia
- toxicity [11]: weight loss and thrombocytopenia
- protein O-GlcNAc modification [12]: global reduction of protein O-GlcNAc modification
